Earlier results in paper PMC10795913 (The Journal of Clinical Endocrinology and Metabolism, 2023).

System: patients
Details: different assays, not directly comparable; cited from earlier work

| Substance | ADA incidence in published studies |
| --- | --- |
| liraglutide | up to 8.7% |
| lixisenatide | up to 71.2% |
| semaglutide | up to 4.3% |
